For series [1] the following is noted: humans; cited from earlier work.
A further series relates to mice. The following applies: cited from earlier work.
The next series has as its system diabetic rats. The following applies: cited from earlier work.
Another series deals with AGE formation. The following applies: in vitro; cited from earlier work.
The target of a further series is SOD-1 Cys111 (Homo sapiens, UniProt P00441). Briefly: Intersubunit crosslinking of SOD-1. The class given is biochemical. Particulars: FIG. 16.
SOD-1 Cys111, sequence (P00441 2-154 limits assumed): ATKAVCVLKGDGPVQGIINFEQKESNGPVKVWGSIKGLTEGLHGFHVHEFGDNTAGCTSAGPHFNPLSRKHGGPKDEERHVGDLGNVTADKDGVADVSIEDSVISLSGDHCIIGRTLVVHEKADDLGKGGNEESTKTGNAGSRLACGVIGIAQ
The test system of series [2] is cultured motor neurons. Description: Viability of motor neurons microinjected with plasmid encoding SOD-1 variants. It counts as cell-based, mouse. Particulars: motor neurons expressing the SOD-1 variant, 10 days of observation, linear curve fit. From the text:
(§1) Dissociation of spinal cord-dorsal root ganglia from embryonic day 13 CD 1 mice (Charles River Laboratories, Wilmington, Mass.), plating on poly-D-lysine-coated coverslips, culture media, and identification of motor neurons were as previously described. Roy, J., Minotti, S., Dong, L., Figlewicz, D. A., and Durham, H. D. (1998) J. Neurosci. 18, 9673-9684. Cultures were used 3-6 weeks after plating.
(§2) Subcloning of SOD-1G93A and SOD-1 wt cDNAs into the BamHI/HindIII sites of pcDNA3 (Invitrogen) was performed previously using cDNAs provided by Dr. Denise Figlewicz (University of Michigan, Ann Arbor, Mich.). Wang, J., Xu, G., and Borchelt, D. R. (2002) Neurobiol. Dis. 9, 139-148. Trp 4 Phe (W32F) mutations were created by site-specific mutagenesis of SOD-1 G93A and SOD-1 wt (TOP Gene Technologies, Quebec, Canada), producing SOD-1 W32F/G93A and SOD-1 W32F mutants, respectively. Intranuclear microinjection of plasmids was used to express SOD-1 constructs in motor neurons and to assess their effects on the survival and formation of inclusions as previously described Durham, H. D., Roy, J., Dong, L., and Figlewicz, D. A. (1997) J. Neuropathol. Exp. Neurol. 56, 523-530.
For viability experiments, motor neurons containing the co-injected fluorescent marker were counted daily under epifluorescence microscopy beginning 24 h post-microinjection. The number of motor neurons was expressed as a percentage of those present at 24 h to exclude those dying from injury during microinjection. The morphology of each cell was also evaluated by phase microscopy. All experiments involved a minimum of six cultures per condition with 20-80 motor neurons (average of 40) analyzed per culture. All experimental groups were analyzed simultaneously using cultures from the same batch, but each set of conditions was assessed for reproducibility in more than one culture batch. For viability experiments, injectates were coded by an independent researcher, and cell counts for viability were carried out blind to the identity of the experimental condition. Rates of cell death were calculated by a linear curve fit of the data (see FIG. 11) and are expressed as the percentage of death/day. The lowest observed linear regression r2 value was 0.94, and the average value was 0.96.
For the survival assays, statistical significance was determined using analysis of variance between groups (SigmaStat, Systat Software, Inc., Point Richmond, Calif.). Significance was established at p less than or equal to 0.05. Data for percentage of motor neurons with inclusions were tested for normal distribution and then compared using a one-tailed, two-sample t test for equal means under the assumption of unequal variance. A null hypothesis of equal means was rejected when p is less than or equal to 0.05.

Series [3] relates to cultured motor neurons. Briefly: SOD-1-positive cytoplasmic inclusions in microinjected motor neurons. It counts as cell-based, mouse.
From the text: as §1
as §2, with “523-530. […]” for “523-530.”
For the survival assays, statistical significance was determined using analysis of variance between groups (SigmaStat, Systat Software, Inc., Point Richmond, Calif.). […]

For series [4], the system named is humans with systolic hypertension and moderately severe diastolic heart failure. Particulars: 16 weeks, 23 humans; cited from earlier work.
The subject of series [5] is diabetic hyperlipidemic mice. Particulars: cited from earlier work.
Another series deals with hypertensive subjects. The following applies: 93 hypertensive subjects age greater than 50 years, compared with placebo; cited from earlier work.
Another series relates to proteasome. Description: Proteasome activity in SOD-1-expressing stably transfected NIH/3T3 cell lines. It counts as cell-based. Particulars: NIH/3T3 cell lines expressing the SOD-1 variant. From the text:
Therefore, one aspect of the invention relates to monitoring proteasome activity to screen for potential ALS therapeutic compounds. FIG. 2 illustrates the results of using SOD-1 expressing cells (eG93A SOD-1 expressing clones; wild-type SOD-1 expressing clones; and […] G93A SOD-1 expressing clones) for said purpose. In certain embodiments, the assay involves administration of different concentrations of a given compound to G93A- and wild-type SOD-1 cell lines, and assaying proteasome activity. Successful compounds, in analogy to […]/G93A double mutant (FIG. 2), will relieve G93A SOD-1 associated proteasome inhibition. […] With successful hits, SOD-1 protein can be immunopurified from cell cultures to determine if there is any direct chemical bonding to SOD-1. pcDNA-3 vector with wild-type SOD-1, G93A SOD-1, […] SOD-1, […] G93A SOD-1 cDNA sequence were prepared by standard site-directed mutagenesis techniques. NIH/3T3 cells were maintained in Dulbecco's modified Eagle's medium (ATCC, Mannassas, Va.) supplemented with 10% newborn calf serum (Invitrogen, Carlsbad, Calif.). Cells were transfected with the plasmids using Lipofectamine 2000 (Invitrogen, Carlsbad, Calif.). A mock transfection was performed and cells were transfected under the same conditions but using either empty pcDNA-3 expression vector or no vector (to test the efficiency of selection). […]

The conditions of series [6]: cited from earlier work.
The mark [7] stands for this setting: 12 weeks therapy, diabetic hypertensive rats.

As to `CCC[C@H](N[C@@H](C)C(=O)N1[C@H](C(=O)O)C[C@@H]2CCCC[C@@H]21)C(=O)OCC` [perindopril], the RAGE levels result in [1] is recorded as “decreased RAGE levels”. Further, the atherosclerosis result in the series on mice is listed as “inhibited atherosclerosis”.

As to `Cc1ncc(CO)c(CN)c1O` [Pyridoxamine], in the series with diabetic rats (compared with aminoguanidine), the cholesterol levels entry was “lowered cholesterol levels more than aminoguanidine” and the diabetic nephropathy result is on record as “inhibited diabetic nephropathy equally to aminoguanidine”. In the series with diabetic rats (nondiabetic and diabetic rats), the AGE formation result is on record as “retarded AGE formation” and the weight result was “mild weight loss”.

Regarding `O=C(O)CN1C[C@@H](c2cccs2)SC[C@H](N[C@@H](CCc2ccccc2)C(=O)O)C1=O` [temocaprilat], in the series with AGE formation, the AGE formation entry is “effective in vitro at decreasing AGE formation”.

For `C=CS(=O)(=O)CCCCCCS(=O)(=O)C=C` [HBVS], the “intersubunit crosslinking of SOD-1 Cys111” value at SOD-1 Cys111 is “intersubunit crosslinking”.

Take `CCCCC1=NC2(CCCC2)C(=O)N1Cc1ccc(-c2ccccc2-c2nnn[nH]2)cc1` [irbesartan]: in series [1], the vascular inflammation result was “decreased vascular inflammation”. The AGE formation entry with AGE formation was “effective in vitro at decreasing AGE formation”.

Consider “SOD-1^wt: wild-type human copper/zinc superoxide dismutase”, for which, in the series with cultured motor neurons [2], the “rate of death of motor neurons” value was 3.0 %/day.

Turning to “SOD-1^W32F/G93A: SOD-1 with the double mutation W32F and G93A”, the “percentage of motor neurons with SOD-1 inclusions” value is “No significant difference” in the series with cultured motor neurons [3] (days 5 and 7, versus SOD-1G93A); “significantly lower proportion” in the series on cultured motor neurons [3] (post-microinjection day 3, versus SOD-1G93A, p<0.005). In addition, the “rate of death of motor neurons” value with cultured motor neurons [2] was found to be 3.6 %/day.

Take `O=C1C=CC(=O)N1CCSSCCN1C(=O)C=CC1=O` [DTME]: the “intersubunit crosslinking of SOD-1 Cys111” value on SOD-1 Cys111 is “intersubunit crosslinking”.

For `O=C(C[n+]1ccsc1)c1ccccc1.[Br-]` [N-phenacylthiazolium bromide], in the series on diabetic rats (diabetic rat models), the AGEs result was “decrease AGEs” and the “nephropathy as measured by proteinuria” value is “has not decreased nephropathy”.

On to `CC(=O)NCCNC(=N)NN.Cl` [ALT-946, N-(2-acetamidoethyl)hydrazinecarboximidamide hydrochloride], for which, in the series with diabetic rats (setting [7]), the “decrease of albuminuria compared with aminoguanidine therapy” value was 250% and the “renal AGEs by histologic analysis” value was “reduce renal AGEs”. Also, the albuminuria entry in the series with diabetic rats (rat model, used at the onset of diabetes and initiated after 16 weeks of diabetes) is “reduced albuminuria”.

As to `CN(C)C(=N)N=C(N)N` [Metformin], the AGE formation entry in the series on AGE formation is “prevent AGE formation”.

With “SOD-1^W32F: SOD-1wt with Trp-32 replaced with Phe”, in the series with cultured motor neurons [2], the “rate of death of motor neurons” value worked out at 4.3 %/day.

Take `Cc1sc[n+](CC(=O)c2ccccc2)c1C.[Cl-]` [ALT-711, alagebrium chloride]: in series [4], the “left ventricular mass, left ventricular filling, patient ratings of quality of life” value was “decreased left ventricular mass, improved left ventricular filling, and improved patient ratings of quality of life”. In addition, in the series on diabetic rats (diabetic rats), the “levels of AGEs, RAGE expression, diabetic nephropathy, myocardial stiffness” value is reported as “decrease”. Besides, in series [5], the “atherosclerosis, cholesterol and systolic blood pressure” value was “attenuated atherosclerosis and decreased cholesterol and systolic blood pressure”. For the same molecule, the “pulse pressure and arterial stiffness” value with hypertensive subjects is reported as “significant reduction”.

As for `CCCCc1nc(Cl)c(CO)n1Cc1ccc(-c2ccccc2-c2nn[nH]n2)cc1` [losartan], the AGE formation result in the series with AGE formation is recorded as “effective in vitro at decreasing AGE formation”.

Regarding `CCCc1nc2c(C)cc(-c3nc4ccccc4n3C)cc2n1Cc1ccc(-c2ccccc2C(=O)O)cc1` [telmisartan], the AGE formation result with AGE formation is recorded as “effective in vitro at decreasing AGE formation”.

Regarding “SOD-1^G93A: disease-causing mutant copper/zinc superoxide dismutase with the G93A mutation”, in the series with proteasome, the proteasome activity entry was “near complete inhibition”. In the series with cultured motor neurons [2], the “rate of death of motor neurons” value turned out to be 6.8 %/day.

Take `N=C(N)NN` [Aminoguanidine]: in the series with diabetic rats (diabetic rats), the “nephropathy, retinopathy, and vessel elasticity” value is listed as “improve”. Moreover, the incidence of glomerulonephritis entry in series [6] (higher dose) is “increased incidence”. Also, the proteinuria entry in series [6] (lower dose, P<0.001) is “equally effective”. In addition, the retinopathy progression result in [6] (lower dose, P=0.03) was “preventing retinopathy progression”. For the same molecule, the serious side effects result in [6] (lower dose) was “free of serious side effects”.

For `CCCCC(=O)N(Cc1ccc(-c2ccccc2-c2nnn[nH]2)cc1)[C@H](C(=O)O)C(C)C` [valsartan], the AGE formation entry with AGE formation is recorded as “effective in vitro at decreasing AGE formation”.
